Measured values from patent US9220787B2, “Vitamin E conjugates, and their uses as antioxidants and prodrug delivery vehicles” (Board of Supervisors of Louisiana State University And …, priority 2010, dated 2015).

Tested on: α-tocopherol transfer protein (α-TTP)
Experiment: not given
Conditions: relative affinity, RRR-α-tocopherol essentially 100%; cited from earlier work

SMILES | affinity of Alpha-TTP [%]
Cc1c(O)cc2c(c1C)O[C@](C)(CCC[C@H](C)CCC[C@H](C)CCCC(C)C)CC2 [γ-tocopherol] | 9
Cc1c(C)c2c(c(C)c1O)CCC(C)(C(=O)O)O2 (stereo not shown) [Trolox, 6-hydroxy-2,5,7,8-tetramethylchroman-2-carboxylic acid] | 9
Cc1c(C)c2c(c(C)c1O)CC[C@@](C)(CCC[C@H](C)CCC[C@H](C)CCCC(C)C)O2 [RRR-α-tocopherol] | ~100
CC(=O)Oc1c(C)c(C)c2c(c1C)CCC(C)(CCC[C@H](C)CCC[C@H](C)CCCC(C)C)O2 (stereo partly drawn) [α-tocopherol acetate] | 2
Cc1cc(O)c(C)c2c1O[C@](C)(CCC[C@H](C)CCC[C@H](C)CCCC(C)C)CC2 [β-tocopherol] | 38

Tested on: not listed separately
Experiment: DPPH assay (antioxidant activity, free radical scavenging)
Type: biochemical
Conditions: 5 concentrations, 0.1 mM DPPH, water:methanol 1:1, reading after 30 min at 518 nm, read-out: IC50, the point at which 50% of DPPH had been reduced
Text: Assays that may be used to measure free radical scavenging properties include, for example, the DPPH assay and the ABTS assay. The 1,1-diphenyl-2-picryl hydrazyl (DPPH) radical is a stable free radical of purple color. Adding an antioxidant reduces the DPPH radical, which can be observed by color change (to yellow) in a spectrophotometer, for example by measuring absorbance at 518 nm. Mixing 2,2-α-azino-bis-(3-ethylbenzthiazoline-6-sulfonic acid) (ABTS) and hydrogen peroxide produces the ABTS radical (ABTS^●). Subsequent incubation with peroxidase produces the radical cation ABTS^•+. Adding an antioxidant causes an attenuation of the color change, which can be measured for example at 734 nm. The activity of an antioxidant is conventionally expressed as the concentration of an equivalent millimolar standard Trolox solution.
A stock solution of DPPH in methanol, 0.4 mM was prepared and stored in the dark at −20° C. prior to use. A test sample was diluted with water (pH=3.5 prepared by addition of acetic acid) to 1 ml. The sample was then added to the dilute DPPH stock in methanol to obtain a final sample volume of 2 ml with a 0.1 mM DPPH concentration. The water:methanol ratio was 1:1 (v/v). A blank was prepared with 1 ml of water (pH=3.5) and pure methanol. […] Absorption readings were taken after 30 min at 518 nm using a Geminys 6 spectrophotometer (Thermo Scientific, Waltham, Mass.). […]

IC50 [µM] | SMILES
24.9 ± 1.4 | COC(=O)C(Cc1c[nH]cn1)NC(=O)CCNC(=O)CCCCCCCCCCCC[C@]1(C)CCc2c(C)c(O)c(C)c(C)c2O1 (stereo partly drawn) [VECAR, methyl 2-(3-(13-((R)-6-hydroxy-2,5,7,8-tetramethylchroman-2-yl)tridecanamido)propanamido)-3-(1H-imidazol-4-yl)propanoate]
24.4 ± 1.5 | Cc1c(C)c2c(c(C)c1O)CC[C@@](C)(CCC[C@H](C)CCC[C@H](C)CCCC(C)C)O2 [alpha-tocopherol]
